According to ChEMBL document CHEMBL1201861, “Genomics of Drug Sensitity in Cancer screening data, Wellcome Trust Sanger Institute”:

Legend:
Assay in all cases: cells
Type in all cases: functional, cell-based, Homo sapiens
COLO-829 = details: Homo sapiens, COLO-829
Description: SANGER: Inhibition of human COLO-829 cell growth in a cell viability assay.

CP66-MEL = details: Homo sapiens, CP66-MEL;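 note: growth inhibition of CP66-MEL cells determined in a cell viability assay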
Description: SANGER: Inhibition of human CP66-MEL cell growth in a cell viability assay.

CTV-1 = details: Homo sapiens, CTV-1;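 note: growth inhibition of the cell line, read out with a cell viability assay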
Description: SANGER: Inhibition of human CTV-1 cell growth in a cell viability assay.

D283 Med = details: Homo sapiens, D283 Med
Description: SANGER: Inhibition of human D-283MED cell growth in a cell viability assay.

DJM-1 = details: Homo sapiens, DJM-1;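 note: growth inhibition of human DJM-1 cells, read out by a cell viability assay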
Description: SANGER: Inhibition of human DJM-1 cell growth in a cell viability assay.

EKVX = details: Homo sapiens, EKVX;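 note: growth inhibition of human EKVX cells, read out with a cell viability assay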
Description: SANGER: Inhibition of human EKVX cell growth in a cell viability assay.

EW-1 = details: Homo sapiens, EW-1
Description: SANGER: Inhibition of human EW-1 cell growth in a cell viability assay.

EW-18 = details: Homo sapiens, EW-18;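 note: growth inhibition of EW-18 cells, read out by a cell viability assay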
Description: SANGER: Inhibition of human EW-18 cell growth in a cell viability assay.

GB-1 = details: Homo sapiens, GB-1;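 note: growth of GB-1 cells judged by a viability assay, IC50 marks the concentration inhibiting growth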
Description: SANGER: Inhibition of human GB-1 cell growth in a cell viability assay.

GCIY = details: Homo sapiens, GCIY;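 note: growth inhibition of the human GCIY cell line, read out by a cell viability assay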
Description: SANGER: Inhibition of human GCIY cell growth in a cell viability assay.

GI-1 = details: Homo sapiens, GI-1;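 note: growth inhibition of human GI-1 cells, measured with a cell viability readout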
Description: SANGER: Inhibition of human GI-1 cell growth in a cell viability assay.

GR-ST = details: Homo sapiens, GR-ST
Description: SANGER: Inhibition of human GR-ST cell growth in a cell viability assay.

HCE-T = details: Homo sapiens, HCE-T;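 note: cell viability assay read-out, reporting inhibition of HCE-T cell growth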
Description: SANGER: Inhibition of human HCE-T cell growth in a cell viability assay.

HT-144 = details: Homo sapiens, HT-144
Description: SANGER: Inhibition of human HT-144 cell growth in a cell viability assay.

JVM-2 = details: Homo sapiens, JVM-2;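 note: growth inhibition of JVM-2 cells determined by a cell viability assay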
Description: SANGER: Inhibition of human JVM-2 cell growth in a cell viability assay.

JVM-3 = details: Homo sapiens, JVM-3;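 note: growth inhibition of human JVM-3 cells, read out with a cell viability assay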
Description: SANGER: Inhibition of human JVM-3 cell growth in a cell viability assay.

KALS-1 = details: Homo sapiens, KALS-1;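 note: growth inhibition of KALS-1 cells, determined with a cell viability assay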
Description: SANGER: Inhibition of human KALS-1 cell growth in a cell viability assay.

KARPAS-299 = details: Homo sapiens, KARPAS-299
Description: SANGER: Inhibition of human KARPAS-299 cell growth in a cell viability assay.

KGN = details: Homo sapiens, KGN;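 note: growth inhibition of KGN cells, read out with a cell viability assay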
Description: SANGER: Inhibition of human KGN cell growth in a cell viability assay.

KNS-42 = details: Homo sapiens, KNS-42;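 note: growth inhibition of KNS-42 cells, read out with a cell viability assay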
Description: SANGER: Inhibition of human KNS-42 cell growth in a cell viability assay.

LB2241-RCC = details: Homo sapiens, LB2241-RCC;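 note: cell viability assay measuring how strongly the cultured human renal carcinoma line is prevented from growing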
Description: SANGER: Inhibition of human LB2241-RCC cell growth in a cell viability assay.

LS-1034 = details: Homo sapiens, LS-1034
Description: SANGER: Inhibition of human LS-1034 cell growth in a cell viability assay.

LS-513 = details: Homo sapiens, LS-513
Description: SANGER: Inhibition of human LS-513 cell growth in a cell viability assay.

MHH-NB-11 = details: Homo sapiens, MHH-NB-11;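 note: growth inhibition of human MHH-NB-11 cells, read out by a cell viability assay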
Description: SANGER: Inhibition of human MHH-NB-11 cell growth in a cell viability assay.

MHH-PREB-1 = details: Homo sapiens, MHH-PREB-1;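 note: cell viability assay measuring inhibition of proliferation of human MHH-PREB-1 cells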
Description: SANGER: Inhibition of human MHH-PREB-1 cell growth in a cell viability assay.

MMAC-SF = details: Homo sapiens, MMAC-SF;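 note: growth inhibition of human MMAC-SF cells, read out with a cell viability assay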
Description: SANGER: Inhibition of human MMAC-SF cell growth in a cell viability assay.

MOLT-4 = details: Homo sapiens, MOLT-4;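 note: growth inhibition of MOLT-4 cells, determined with a cell viability readout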
Description: SANGER: Inhibition of human MOLT-4 cell growth in a cell viability assay.

MSTO-211H = details: Homo sapiens, MSTO-211H
Description: SANGER: Inhibition of human MSTO-211H cell growth in a cell viability assay.

Mo = details: Homo sapiens, Mo
Description: SANGER: Inhibition of human Mo-T cell growth in a cell viability assay.

NB5 = details: Homo sapiens, NB5;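 note: growth inhibition of NB5 cells, read out as cell viability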
Description: SANGER: Inhibition of human NB5 cell growth in a cell viability assay.

NB69 = details: Homo sapiens, NB69;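 note: growth inhibition of NB69 cells, determined by a cell viability assay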
Description: SANGER: Inhibition of human NB69 cell growth in a cell viability assay.

NCI-H1304 = details: Homo sapiens, NCI-H1304;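 note: growth inhibition of the cancer cell line, measured in a cell viability assay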
Description: SANGER: Inhibition of human NCI-H1304 cell growth in a cell viability assay.

NCI-H23 = details: Homo sapiens, NCI-H23;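 note: cell viability assay measuring growth inhibition of NCI-H23 cells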
Description: SANGER: Inhibition of human NCI-H23 cell growth in a cell viability assay.

NCI-H510A = details: Homo sapiens, NCI-H510A;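 note: growth inhibition of NCI-H510A cells, read out with a cell viability assay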
Description: SANGER: Inhibition of human NCI-H510A cell growth in a cell viability assay.

NCI-H747 = details: Homo sapiens, NCI-H747;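 note: growth inhibition of human NCI-H747 cells, read out by a cell viability assay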
Description: SANGER: Inhibition of human NCI-H747 cell growth in a cell viability assay.

NTERA-2-cl-D1 = details: Homo sapiens, NTERA-2-cl-D1;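 note: inhibition of cell growth, measured with a cell viability assay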
Description: SANGER: Inhibition of human NTERA-S-cl-D1 cell growth in a cell viability assay.

OCI-AML2 = details: Homo sapiens, OCI-AML2;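 note: growth inhibition of OCI-AML2 cells, read out with a cell viability assay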
Description: SANGER: Inhibition of human OCI-AML2 cell growth in a cell viability assay.

OS-RC-2 = details: Homo sapiens, OS-RC-2;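 note: growth inhibition of human OS-RC-2 cells, measured by a cell viability assay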
Description: SANGER: Inhibition of human OS-RC-2 cell growth in a cell viability assay.

P30-OHK = details: Homo sapiens, P30-OHK;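 note: growth inhibition of the P30-OHK cell line, read out with a cell viability assay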
Description: SANGER: Inhibition of human P30-OHK cell growth in a cell viability assay.

Ramos-2G6-4C10 = details: Homo sapiens, Ramos-2G6-4C10;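 note: growth inhibition of the cell line, measured by a cell viability read-out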
Description: SANGER: Inhibition of human Ramos-2G6-4C10 cell growth in a cell viability assay.

SCC-15 = details: Homo sapiens, SCC-15;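 note: growth inhibition of SCC-15 cells, read out with a cell viability assay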
Description: SANGER: Inhibition of human SCC-15 cell growth in a cell viability assay.

SK-MEL-1 = details: Homo sapiens, SK-MEL-1;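 note: growth inhibition of human SK-MEL-1 cells, read out by a cell viability assay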
Description: SANGER: Inhibition of human SK-MEL-1 cell growth in a cell viability assay.

A388 = details: Homo sapiens, A388;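 note: growth inhibition of human A388 cells, read out with a cell viability assay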
Description: SANGER: Inhibition of human A388 cell growth in a cell viability assay.

A4-Fuk = details: Homo sapiens, A4-Fuk;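 note: growth inhibition of A4-Fuk cells, read out by a cell viability assay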
Description: SANGER: Inhibition of human A4-Fuk cell growth in a cell viability assay.

TE-11 = details: Homo sapiens, TE-11;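 note: growth inhibition of human TE-11 cells, read out by a cell viability assay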
Description: SANGER: Inhibition of human TE-11 cell growth in a cell viability assay.

VA-ES-BJ = details: Homo sapiens, VA-ES-BJ;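 note: growth inhibition of the VA-ES-BJ cell line, read out by a cell viability assay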
Description: SANGER: Inhibition of human VA-ES-BJ cell growth in a cell viability assay.

no-10 = details: Homo sapiens;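 note: growth inhibition of no-10 cells, read out with a cell viability assay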
Description: SANGER: Inhibition of human no-10 cell growth in a cell viability assay.

COLO-320-HSR = details: Homo sapiens, COLO-320-HSR;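 note: growth inhibition of COLO-320-HSR cells, determined with a cell viability assay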
Description: SANGER: Inhibition of human COLO-320-HSR cell growth in a cell viability assay.

**Q.** What does the source list for `Nc1ccn([C@@H]2O[C@H](CO)[C@@H](O)C2(F)F)c(=O)n1` [GEMCITABINE]?
**A.** IC50 (COLO-829): > 1020 nM; IC50 (CP66-MEL): > 1020 nM; IC50 (CTV-1): 14.1 nM; IC50 (D283 Med): 127 nM; IC50 (DJM-1): 21.6 nM; IC50 (EKVX): > 1020 nM; IC50 (EW-1): 2.22 nM; IC50 (EW-18): 72.8 nM; IC50 (GB-1): 5.84 nM; IC50 (GCIY): 92.7 nM; IC50 (GI-1): 2.76 nM; IC50 (GR-ST): < 4 nM; IC50 (HCE-T): 12.4 nM; IC50 (HT-144): 4.92 nM; IC50 (JVM-2): > 1020 nM; IC50 (JVM-3): > 1020 nM; IC50 (KALS-1): 21.4 nM; IC50 (KARPAS-299): 252 nM; IC50 (KGN): < 4 nM; IC50 (KNS-42): 736 nM; IC50 (LB2241-RCC): < 4 nM; IC50 (LS-1034): > 1020 nM; IC50 (LS-513): 888 nM; IC50 (MHH-NB-11): 386 nM; IC50 (MHH-PREB-1): 248 nM; IC50 (MMAC-SF): > 1020 nM; IC50 (MOLT-4): 65.3 nM; IC50 (MSTO-211H): > 1020 nM; IC50 (Mo): > 1020 nM; IC50 (NB5): > 1020 nM; IC50 (NB69): 1.05 nM; IC50 (NCI-H1304): 385 nM; IC50 (NCI-H23): 211 nM; IC50 (NCI-H510A): 33.3 nM; IC50 (NCI-H747): 42.3 nM; IC50 (NTERA-2-cl-D1): 1.64 nM; IC50 (OCI-AML2): < 4 nM; IC50 (OS-RC-2): 6.68 nM; IC50 (P30-OHK): 1.46 nM; IC50 (Ramos-2G6-4C10): 661 nM; IC50 (SCC-15): 121 nM; IC50 (SK-MEL-1): > 1020 nM; IC50 (A388): 1.36 nM; IC50 (A4-Fuk): < 4 nM; IC50 (TE-11): > 1020 nM; IC50 (VA-ES-BJ): 5.26 nM; IC50 (no-10): 174 nM; IC50 (COLO-320-HSR): 224 nM
